Test results as given in patent US20100136538A1, “MARKING REAGENTS BEARING DIAZO AND NITRO FUNCTIONS, METHODS FOR THE SYNTHESIS OF SUCH REAGENTS AND METHODS FOR DETECTING BIOLOGICAL MOLECULES” (Biomerieux, priority 2007, published 2010).

Columns and labels:
[1] = Accelerated stability in liquid medium (125 mM in 96/4 DMSO/methanol, ambient temperature), HPLC purity; type: physicochemical; settings: 22° C., at 10 days
Procedure: For this purpose, an accelerated stability study is carried out under extreme conditions, in which the compounds are stored at 125 mM in a 96/4 DMSO/methanol mixture at ambient temperature (22° C.+/−1° C.). Note that these are extreme storage conditions.
The three compounds meta nitro DKB, para nitro DKB, and BBP, which are clearly shown in FIG. 10, are dissolved at 125 mM in a 96/4 DMSO/methanol mixture and are stored at ambient temperature (22° C. plus or minus 1° C.). At regular intervals subsequently, 2 μl of these solutions are injected in HPLC (basic method, Waters HPLC system) in order to measure the degradation of the principal product by integrating all of the peaks in the chromatogram (PDA Max Plot in the Empower 2 software).

[2] = type: physicochemical
Procedure: The three compounds meta nitro DKB, para nitro DKB, and BBP are dissolved at 250 mM in a Tris HCl 10 mM, pH 7.5, and 10% Trehalose solution. The solutions are lyophilized overnight in aliquots of 50 nmol. The dry products are then stored at 4° C. At regular intervals these aliquots are dissolved in methanol and 15 μl of these solutions are injected in HPLC (Waters) in order to measure the degradation of the principal product by integration of all of the peaks in the chromatogram (PDA Max Plot in the Empower software).

Substance: [Bio-EG3]2-PDAM [BBP]
- purity of the initial compound (HPLC) [1]: < 10%
- stability in dry form [2]: does not withstand lyophilization
- breakdown during lyophilization ([2]; Tris HCl 10 mM pH 7.5, 10% Trehalose, lyophilized overnight): > 60%
